Values of other authors as cited in US8053002B2, “Medicinal herbal composition for treating infection” (priority 2005, dated 2011).

Assays:
[1] = test system: HIV-1
[2] = test system: herpes simplex virus (HSV-2)
[3] = target: HIV-1 reverse transcriptase (Human immunodeficiency virus type 1 group M subtype B, UniProt P03366)
[4] = test system: influenza virus

Row | Molecule | anti-herpes simplex virus (HSV-2) activity in vitro [2] | effect on HIV-1 reverse transcriptase activity [3] | other results
1 | Prunellin |  |  | minimum inhibition concentration against HIV-1 in vitro [1]: 2.2 µg/mL
2 | COC(=O)c1cc(O)c(O)c(O)c1 [methyl gallate] | exhibited anti-herpes simplex virus (HSV-2) activity |  | 
3 | COc1cc2cc3c(c(-c4ccc5c(c4)OCO5)c2cc1OC)COC3=O [retrojusticiden B] |  | inhibitory effect | 
4 | O=C(O[C@@H]1O[C@@H]2COC(=O)c3cc(O)c(O)c(O)c3-c3c(cc(O)c(O)c3O)C(=O)O[C@H]2[C@H](OC(=O)c2cc(O)c(O)c(O)c2)[C@H]1OC(=O)c1cc(O)c(O)c(O)c1)c1cc(O)c(O)c(O)c1 [Eugeniin] | exhibited anti-herpes simplex virus (HSV-2) activity |  | 
5 | O=c1cc(-c2ccc(O)cc2)oc2cc(O)cc(O)c12 [5,7,4-truhydroxyflavone] |  |  | anti-influenza virus activity [4]: anti-influenza virus activity
6 | COCc1cc2cc(OC)c(OC)cc2c(-c2ccc3c(c2)OCO3)c1C=O [phyllamycin B] |  | inhibitory effect | 
